As usually defined, the half-life is the time in which the quantity being followed falls by half. Usually EC50 stands for the concentration at which the effect is half-maximal.

The values that follow come from article PMC6149869 (OncoTargets and therapy, 2018).

Data set [1] is described as follows: Clearance of sorafenib in cultured MHCC97-H cells. In kind it is in vitro ADME. The conditions noted are these: human, Half-life (t1/2 value) of Sor, 1 µmol/L sorafenib.
The test system of data set [2] is MHCC97-H cells. The data set can be described thus: Subcutaneous HCC tumor growth model. The note with it: sorafenib 2 mg/kg oral; Figure 3. The format is in vivo, nude mice.
The subject of data set [3] is MHCC97-H cells. The data set is described as follows: Intrahepatic HCC tumor growth model. The format is in vivo, nude mice. The conditions noted are these: sorafenib 2 mg/kg oral; Figure 4.
A further data set has as its system MDR-1. The data set can be described thus: qPCR expression of PXR downstream gene MDR-1 in MHCC97-H cells. The conditions noted are these: human. In general terms: In qPCR the cycle at which signal appears reflects the starting amount.

For `CNC(=O)c1cc(Oc2ccc(NC(=O)Nc3ccc(Cl)c(C(F)(F)F)c3)cc2)ccn1` [Sor, sorafenib], the half-life at 1 µmol/L is 21.6 ± 5.3 h in data set [1] (miR-140-3p) and 14.7 ± 5.87 h in data set [1] (miR-140-3p + inhibitor). In addition, the “Effect on subcutaneous growth of HCC cells in nude mice” value in the data set on MHCC97-H cells [2] is recorded as “significantly inhibit the subcutaneous growth of HCC cells”. For the same molecule, the “Effect on intrahepatic growth of MHCC97-H cells in livers of nude mice” value in the data set with MHCC97-H cells [3] is recorded as “significantly inhibit the intrahepatic growth of MHCC97-H cells”.
For `CO[C@H]1/C=C/O[C@@]2(C)Oc3c(C)c(O)c4c(O)c(c(/C=N/N5CCN(C)CC5)c(O)c4c3C2=O)NC(=O)/C(C)=C\C=C\[C@H](C)[C@H](O)[C@@H](C)[C@@H](O)[C@@H](C)[C@H](OC(C)=O)[C@@H]1C` [rifampicin, Rifampicin], in the data set on MDR-1, a half-maximal effect (EC50 at 24 h) was put at 1810 ± 290 nM.
